Results published in article PMC2746281 (PLoS ONE, 2009).

Legend:
c-Met = target: T1, c-Met (Homo sapiens, UniProt P08581); experiment: Recombinant kinase ELISA assay, c-Met; type: biochemical; details: recombinant human enzyme; ELISA-based assay, poly(Glu,Tyr 4:1) substrate
T1 construct: c-Met (949–1398); 6xHN (N); made in house; host or cells: baculovirus, Sf9 insect cells
Procedure: (§1) Full details for the generation of recombinant human KIT intracellular domain and other protein kinases (including Lyn, platelet derived growth factor receptor β, epidermal growth factor receptor, fibroblast growth factor receptor 1, Src, HCK, PYK, FES, Btk, Bmx, c-Ret, c-Fms, Syk, and c-Met) are provided in the Supplemental Methods (see Supporting Information; Methods S1). Experiments on ABL1, Akt1, protein kinase C-α, insulin-like growth factor receptor 1, and Pim1 were carried out by Proqinase (Germany). All other recombinant protein kinases were performed in-house using an enzyme-linked immunoassay; experimental details are provided in the Supplemental Methods (see Supporting Information; Methods S1).
(§2) The sequences encoding PDGF receptor β (residues 554–1106; GenBank accession no. BC032224), Lyn B (2–583; accession no. BC059394), fibroblast growth factor receptor 1 (572–959; accession no. BC018128), Src (2–536; accession no. BC011566), Btk (2–659; accession no. BC109079), Bmx (2–675; accession no. BC016652), c-Ret (713–1114; accession no. BC004257), c-Fms (538–972; BC047531), Syk (2–612; BC011399), Hck (2-526; accession no. BC014435), Fes (2-822; accession no. BC035357), PYK2 (2-1006; accession no. BC042599) and c-Met (949–1398; accession no. lifeseq3489592) were amplified by PCR from IMAGE cDNA clones purchased from Openbiosystems. […]

KIT Δ27 (murine) = target: T2, KIT Δ27 (murine) (Mus musculus, UniProt P05532, DEL551-559); experiment: Ba/F3 cell proliferation (WST-1), KIT Δ27; details: Ba/F3 cells expressing the enzyme, read-out: Cell-based assay IC50, KIT Δ27 (murine)
T2 construct: expressed in transfected cells; host or cells: Ba/F3
T2 sequence (P05532 with tags, fused parts or gaps isoform P05532-2 DEL547-555): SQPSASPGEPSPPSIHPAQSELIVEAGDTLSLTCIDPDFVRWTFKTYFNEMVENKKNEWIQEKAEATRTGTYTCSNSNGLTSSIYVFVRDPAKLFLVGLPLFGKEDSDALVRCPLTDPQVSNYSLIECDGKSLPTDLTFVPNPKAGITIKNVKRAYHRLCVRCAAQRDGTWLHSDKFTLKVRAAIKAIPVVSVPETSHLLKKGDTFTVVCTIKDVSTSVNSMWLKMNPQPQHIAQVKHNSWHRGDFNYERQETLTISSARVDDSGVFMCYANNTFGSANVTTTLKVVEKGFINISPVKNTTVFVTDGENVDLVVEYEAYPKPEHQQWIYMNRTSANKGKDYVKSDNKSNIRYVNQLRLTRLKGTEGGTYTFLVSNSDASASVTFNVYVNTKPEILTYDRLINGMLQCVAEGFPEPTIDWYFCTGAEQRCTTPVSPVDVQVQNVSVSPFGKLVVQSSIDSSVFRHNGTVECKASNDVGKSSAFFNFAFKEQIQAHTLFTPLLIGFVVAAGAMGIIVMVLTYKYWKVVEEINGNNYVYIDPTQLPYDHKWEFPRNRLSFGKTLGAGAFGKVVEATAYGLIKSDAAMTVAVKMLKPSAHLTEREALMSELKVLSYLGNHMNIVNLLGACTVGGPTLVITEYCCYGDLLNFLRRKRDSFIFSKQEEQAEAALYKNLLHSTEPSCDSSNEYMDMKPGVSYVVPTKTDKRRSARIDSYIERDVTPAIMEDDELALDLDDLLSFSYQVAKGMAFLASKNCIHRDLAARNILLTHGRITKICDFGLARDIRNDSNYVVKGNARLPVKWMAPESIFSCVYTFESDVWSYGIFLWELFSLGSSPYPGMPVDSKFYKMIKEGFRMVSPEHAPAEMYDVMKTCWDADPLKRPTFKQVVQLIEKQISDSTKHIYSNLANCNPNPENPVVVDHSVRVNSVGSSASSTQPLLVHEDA

[1] = tested on: primary BMMCs from mice expressing wild-type KIT; experiment: SCF-stimulated proliferation and KIT tyrosine phosphorylation in primary BMMCs; type: cell-based; details: Mus musculus, BMMC, primary murine BMMCs, read-out: IC50, SCF-stimulated cell proliferation and tyrosine phosphorylation of KIT in BMMCs
Procedure: (B) western blotting analysis of HMC-1α155 tyrosine phosphorylation. […] (D) Western blotting analysis of BMMC tyrosine phosphorylation. Cell proliferation was assessed by WST-1 colorimetric assay. […] MW = molecular weight.

c-Fms = target: T3, c-Fms (Homo sapiens, UniProt P07333); experiment: Recombinant kinase ELISA assay, c-Fms; type: biochemical; details: recombinant human enzyme; ELISA-based assay, poly(Glu,Tyr 4:1) substrate
T3 construct: c-Fms (538–972; BC047531); 6xHN (N); made in house; host or cells: baculovirus, Sf9 insect cells
T3 sequence (P07333 538-972): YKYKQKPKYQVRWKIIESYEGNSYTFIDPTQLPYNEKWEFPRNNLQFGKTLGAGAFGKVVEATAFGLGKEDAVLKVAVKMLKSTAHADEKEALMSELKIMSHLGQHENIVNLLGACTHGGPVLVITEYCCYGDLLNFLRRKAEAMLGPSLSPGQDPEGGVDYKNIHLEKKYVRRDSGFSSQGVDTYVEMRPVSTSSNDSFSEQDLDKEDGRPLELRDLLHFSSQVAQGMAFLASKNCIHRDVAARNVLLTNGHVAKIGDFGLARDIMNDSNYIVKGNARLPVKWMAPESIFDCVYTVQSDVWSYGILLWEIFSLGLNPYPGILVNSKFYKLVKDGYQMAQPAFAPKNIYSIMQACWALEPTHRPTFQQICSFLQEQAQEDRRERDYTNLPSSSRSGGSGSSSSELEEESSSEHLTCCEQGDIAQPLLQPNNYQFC
Procedure: as §1, §2

Syk = target: T4, Syk (Homo sapiens, UniProt P43405); experiment: Recombinant kinase ELISA assay, Syk; type: biochemical; details: recombinant human enzyme; ELISA-based assay, poly(Glu,Tyr 4:1) substrate
T4 construct: Syk (2–612; BC011399); 6xHN (N); made in house; host or cells: baculovirus, Sf9 insect cells
Procedure: as §1, §2

[2] = tested on: Δ27-expressing Ba/F3 cells; experiment: Ba/F3 Δ27 tumour model in nude mice; type: in vivo; details: for average tumour volume increase: days 14 to 25, tumours 40 mm^3, vehicle 1200%; for animals with no detectable tumours at day 25: n = 8 per group
Procedure: Nude mice were gamma-irradiated and implanted after 24 hours with Δ27-expressing Ba/F3 cells by subcutaneous injection.
placebo (vehicle control); or untreated (n = 8 per group). […]
Female MBRI Nu/Nu mice (7 weeks old) (Janvier, France) were housed under specific pathogen-free conditions at 20±1°C with a 12 hours light/12 hours dark cycle and ad libitum access to food and filtered water. The mice were allowed to acclimatise to the study conditions for 10 to 20 days prior to experiments. All animal experiments were performed according to Centre national de la recherche scientifique (CNRS) ethical guidelines of animal experimentation. […] The cells were centrifuged and resuspended at 5×10^6 or 7.5×10^6 cells/ml in phosphate-buffered saline. Mice were treated with 5 Gy of gamma radiation and after 24 hours they were injected in the right flank with 1.5×10^6 Δ27 Ba/F3 cells. […] For all animals, body weight was measured on the day of injection and every 5 days thereafter, with the tumour's size measured via callipers every 5 days during the treatment period for estimation of tumour volume. During the predose period and for 2 weeks post-treatment, the animals were checked for mortality or signs of morbidity once a day, increasing to twice a day checks during the treatment period.
Survival in the in vivo mouse studies was assessed by Kaplan-Meier analysis using GraphPad Prism (GraphPad Software, Inc. USA) with comparison of survival curves performed by the logrank Mantel-Cox test. The appropriate Wilcoxon or Kruskall-Wallis tests were used for group comparison of tumour volumes and BMMC migration.

T1 sequence (P08581 949-1390 limits assumed): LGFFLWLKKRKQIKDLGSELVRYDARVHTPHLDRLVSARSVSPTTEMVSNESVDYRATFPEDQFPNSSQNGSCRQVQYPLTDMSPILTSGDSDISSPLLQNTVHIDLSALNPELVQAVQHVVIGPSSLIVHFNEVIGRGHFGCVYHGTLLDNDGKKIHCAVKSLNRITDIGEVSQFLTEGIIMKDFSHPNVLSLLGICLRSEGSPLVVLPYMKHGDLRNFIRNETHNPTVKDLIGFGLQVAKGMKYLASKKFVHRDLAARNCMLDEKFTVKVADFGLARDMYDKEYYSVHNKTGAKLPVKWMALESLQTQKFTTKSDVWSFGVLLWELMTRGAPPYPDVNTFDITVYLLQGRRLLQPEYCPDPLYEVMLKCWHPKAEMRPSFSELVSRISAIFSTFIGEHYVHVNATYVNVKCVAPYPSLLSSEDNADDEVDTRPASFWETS

Work on `CS(=O)(=O)O.CS(=O)(=O)O.Cc1ccc(NC(=O)c2ccc(CN3CCN(C)CC3)cc2)cc1Nc1nc(-c2cccnc2)cs1` [masitinib, 4-(4-methylpiperazin-1-ylmethyl)-N-[4-methyl-3-(4-pyridin-3ylthiazol-2-ylamino)phenyl]benzamide-mesylate methane sulfonic acid salt] yielded an IC50 (c-Met) greater than 10 µM, an IC50 (KIT Δ27 (murine)) of 5 ± 0.3 nM and an IC50 [1] of 200 ± 50 nM. For the same compound, the IC50 (c-Fms) was 1480 ± 540 nM, the IC50 (Syk) was greater than 10 µM and the “effect on total body weight” value ([2]; 30 mg/kg intraperitoneal twice daily for 25 days) was “did not affect the total body weight”. The tumour growth ([2]; 30 mg/kg intraperitoneal twice daily for 25 days, tumours 400 mm^3) was “Tumour growth stabilised”, the median survival time ([2]; 30 mg/kg intraperitoneal twice daily for 25 days, tumours 400 mm^3, control 30.5 days) was 42 days and the “average tumour volume, placebo group compared to masitinib treated group” value ([2]; 30 mg/kg intraperitoneal twice daily, after 10 days of treatment (day 29)) was roughly 4 fold. The “average tumour volume increase” value ([2]; 30 mg/kg oral twice daily) was 355%, the “animals with no detectable tumours at day 25” value ([2]; 30 mg/kg oral twice daily) was “one” and the “average tumour volume increase” value ([2]; 45 mg/kg oral twice daily) was 154%. The “animals with no detectable tumours at day 25” value ([2]; 45 mg/kg oral twice daily) was “two”, the tumour growth ([2]; 100 mg/kg oral twice daily, 5 days, tumours 500 mm^3 (data not shown)) was “tumour growth was blocked” and the “effect on body weight gain” value ([2]; 10, 30, or 45 mg/kg oral twice daily) was “did not affect body weight gain”.
